Assay results taken from patent US20260083126A1, “ANTIMICROBIAL COMPOSITIONS” (AHV International B.V., priority 2022, published 2026).
In brackets after ≈: the same amount, converted by molar mass. Several values for one entry are separate records, joined by “and”; a condition that tells them apart may be missing. Equal entries are not always repeated.

test system: Staphylococcus epidermis ATCC 35984 biofilm; assay: MBEC assay (48 h biofilm, CFU log reduction); format: cell-based, Staphylococcus epidermidis; conditions: 20 h treatment, 0.125-1 mM tested
Experimental: (§1) For the MBEC assay (method 1.3) the solutions need to be diluted to a final concentration of 2 mM in 0.9% saline solution and then further diluted to 1 mM, 0.5 mM, 0.25 mM and 0.125 mM in saline. Those dilutions were added as treatment to the 96 well plates with the grown biofilm (see method 3) (0.5 mL needed for one strain). The dilution must stay transparent.
(§2) Frozen aliquots of Staphylococcus epidermis ATCC 35984 and Pseudomonas aeruginosa ATCC 27853 were used to inoculate 20 mL of Tryptic Soy Broth (TSB) in a 100 mL Erlenmeyer flask at 37° C. and 150 rpm and incubated overnight (Infors). The OD600 of the overnight culture was measured with a spectrophotometer (Evolution™ 201/220 UV-Visible Spectrophotometer, Thermo Fisher Scientific) and diluted to an ( ) 600 of 0.2, which resembles 10^8 CFU/mL. The cell suspension of OD600=0.2 was seeded into a U-bottom-shaped 96 well plates by pipetting 100 μL per well in column 1-11, column 12 was filled with 100 μL medium as sterility control. The 96 well plates were sealed with adhesive polyethylene film for sealing microplates and incubated for 48 h at 37° C. at static conditions. After the biofilm growth phase, 100 μL of treatment solutions (method 1) were added to the vials resulting in treatment concentrations of 1 mM, 0.5 mM, 0.25 mM and 0.125 mM and with the respective concentration of Tween 80 and DMSO each at 0.63%, 0.32%, 0.16% and 0.08%. The same concentration was applied to four different wells of the same bacterial strain, resulting in four replicates for each concentration and strain. The treatment was incubated for 20 h at 37° C. at static conditions. After the treatment the supernatant was carefully removed and the well with the biofilm washed carefully for one time with 200 μL 0.9% saline solution. 200 μL saline solution was added and the biofilm was resuspended thoroughly. When fully homogenized then 20 μl, was used for the first dilution in 180 μL 0.9% saline solution, which was prepared in a second plate. This dilution was continued until dilution step 10E-5 and 100 μL of the 10E-4 and 10E-5 dilution plated on a TSA plate. The TSA plates were incubated at 37° C. for 24 h. The colonies on the plates were enumerated, the colony forming units per ml, of the dispensed biofilm and averages thereof and the log reduction in comparison with the untreated sample from the same wells plate calculated. Reduction of colony forming units goes hand in hand with the thickness of the biofilm and thus with the number bacteria that are present in the biofilm. Therefore, a significant reduction of colony forming units in the biofilm was defined at the value of log reduction >1 or more. This assay was repeated two times in two independent experiments)

SMILES | S. epidermidis MBEC mM with log reduction ≥1
O=S(=O)(Sc1ccc(F)cc1)c1ccc(F)cc1 [Bis (4-fluorophenyl) thiosulfonate, Bis(4-fluorophenyl) thiosulfonate] | >1 mM
CCCSS(=O)(=O)CCC [Di-n-propyl thiosulfonate, reference compound] | 0.25 mM
CCCSSCCC [Di-n-propyl disulfide, reference compound] | >1 mM
Fc1ccc(SSc2ccc(F)cc2)cc1 [Bis (4-fluorophenyl) disulfide, Bis(4-fluorophenyl) disulfide] | >1 mM
CC(C)SS(=O)(=O)C(C)C [Di-isopropyl thiosulfonate] | >1 mM
O=S(=O)(Sc1ccc(Cl)cc1)c1ccc(Cl)cc1 [Bis (4-chlorophenyl) thiosulfonate, Bis(4-chlorophenyl) thiosulfonate] | >1 mM
Clc1ccc(SSc2ccc(Cl)cc2)cc1 [Bis (4-chlorophenyl) disulfide, Bis(4-chlorophenyl) disulfide] | >1 mM
[O-][S+](Sc1ccc(F)cc1)c1ccc(F)cc1 (centres unmarked) [Bis (4-fluorophenyl) thiosulfinate, Bis(4-fluorophenyl) thiosulfinate] | >1 mM

test system: Pseudomonas aeruginosa ATCC 27853; assay: MIC assay (growth inhibition of planktonic microorganisms); format: cell-based; conditions: Pseudomonas aeruginosa, ATCC27853, 24 h, reduction of final OD600 by 50%, 24 h at 37° C., MHB-II; read-out: P. aeruginosa MIC50
Experimental: (§3) The exact weighed amount was noted and the volume of solvent to reach a 80 mM dilution calculated. Half of the volume was added first, by adding Tween 80 and let stand for 5 minutes. In a second step, the other half of the volume DMSO was added and resuspended to help the dilution process. The closed tube was inverted 5-10 times and then vortexed very thoroughly for at least 30 seconds. If after this procedure crystals were still visible, the tube was placed in a shaker at 37° C. at 150 rpm for at least 30 minutes (it is indicated if the dissolution period was longer than 2 h). […] In case of Bis(4-Chlorophenyl) thiosulfonate, a lower concentrated stock solution of 2 mM needed to be prepared. For that, the required amount of compound was weighed in and 2% v/v Tween80 and 2% v/v DMSO of the end volume of the stock solution was added to the substance. This mix was heated in a water bath set to 40° C. and occasionally shaken. When the whole amount of the substance reached dissolution, the volume was filled up with growth medium until the end volume. This 2 mM stock solution of Bis(4-Chlorophenyl) thiosulfonate was used in the MIC plate and diluted two-fold, resulting in a testing range of Bis(4-Chlorophenyl) thiosulfonate from 1 mM to 0.002 mM.
(§4) The microorganisms as indicated in Table 4 were used to inoculate a tryptic soy agar (TSA) plate and incubated overnight at 37° C. After incubation 3-5 well-isolated colonies with the same morphology were selected from the TSA plate and resuspended in 2 mL 0.9% saline solution with 3-6 glass beads and vortexed. The optical density at 600 nm (OD600) of the bacterial suspension was measured with a spectrophotometer (Evolution™ 201/220 UV-Visible Spectrophotometer, Thermo Fisher Scientific) and diluted to an OD600 of 0.0008, which resembles 10^6 CFU/mL.
(§5) The MIC assay was performed in a flat-bottom 96-microtiter plate. 50 μL of MHB-II was added into columns 2-11, and 100 μL to column 12 for sterility control. 100 μL of the 8 mM test compound solution (method 1) was added to column 1. A two-fold dilution series of the solution in MHB-II was achieved by resuspending 50 μL of the 8 mM solution from column 1 to column 2. This step was repeated until column 10. The respective concentration of Tween 80 and DMSO in column 1 was 2.5%, which is two-fold diluted throughout the plate. 50 μL of the bacterial suspension was added to column 1-11. The microtiter plates were sealed with adhesive polyethylene film for sealing microplates (Diversified Biotech) and incubated for 24 h at 37° C. After incubation the OD was measured at 600 nm with the Varioskan (Thermo Fisher Scientific). The minimal concentration which causes reduction of final OD600 of the bacterial culture by 50% (MIC50) and by 90% (MIC90) was calculated after normalization of the obtained OD values to the growth control in column 11. This assay was repeated three times in three independent experiments.
Hereafter, the stock solutions of the compounds were used in three repetitions in a minimal inhibitory concentration (MIC) assay at a 2-fold dilution range with various bacteria from the gram-positive and gram-negative group and a yeast, Candida albicans. The concentrations that show only less than 10% growth after 24 h were considered the MIC90-values, whereas the concentrations that show 50% growth after 24 h when compared to the bacterial growth control were considered the MIC50-values. Escherichia coli and Staphylococcus aureus were used as representatives for a gram-negative bacteria and gram-positive bacteria, respectively. Furthermore, the yeast C. albicans was also tested.
In an Eppendorf tube between 10-20 mg of the test compound was weighed. Hereafter, the required amount of Tween 80 was added, followed by the amount DMSO. After vigorous shaking, the dissolved and transparent dilutions were diluted 10 times with Mueller Hinton Broth (MHB) for the MIC assay. […]

SMILES | MIC50
CCCSSCCC [Di-n-propyl disulfide, reference compound] | > 4000 µM
Fc1ccc(SSc2ccc(F)cc2)cc1 [Bis (4-fluorophenyl) disulfide, Bis(4-fluorophenyl) disulfide] | 125 µM (≈ 31.8 µg/mL)
Clc1ccc(SSc2ccc(Cl)cc2)cc1 [Bis (4-chlorophenyl) disulfide, Bis(4-chlorophenyl) disulfide] | 20 µM (≈ 5.74 µg/mL)

same assay, conditions: Pseudomonas aeruginosa, ATCC27853; Example 2b, FIG. 1; no MIC90 detected in the tested range; read-out: Average MIC90 P. aeruginosa (Pa)

SMILES | MIC90
Fc1ccc(SSc2ccc(F)cc2)cc1 [Bis (4-fluorophenyl) disulfide, Bis(4-fluorophenyl) disulfide] | > 4000 µM

same assay, conditions: Pseudomonas aeruginosa, ATCC27853; reduction of final OD600 by 90%, 24 h at 37° C., MHB-II; read-out: P. aeruginosa MIC90

SMILES | MIC90
CCCSSCCC [Di-n-propyl disulfide, reference compound] | > 4000 µM
Fc1ccc(SSc2ccc(F)cc2)cc1 [Bis (4-fluorophenyl) disulfide, Bis(4-fluorophenyl) disulfide] | 250 µM (≈ 63.6 µg/mL)
Clc1ccc(SSc2ccc(Cl)cc2)cc1 [Bis (4-chlorophenyl) disulfide, Bis(4-chlorophenyl) disulfide] | 30 µM (≈ 8.62 µg/mL)

same assay, conditions: reduction of final OD600 by 50%, 24 h at 37° C., MHB-II

SMILES | P. aeruginosa MIC50
O=S(=O)(Sc1ccc(F)cc1)c1ccc(F)cc1 [Bis (4-fluorophenyl) thiosulfonate, Bis(4-fluorophenyl) thiosulfonate] | 2000 µM
CCCSS(=O)(=O)CCC [Di-n-propyl thiosulfonate, reference compound] | 250 µM
Fc1ccc(SSc2ccc(F)cc2)cc1 [Bis (4-fluorophenyl) disulfide, Bis(4-fluorophenyl) disulfide] | 130 µM
CC(C)SS(=O)(=O)C(C)C [Di-isopropyl thiosulfonate] | 2000 µM
O=S(=O)(Sc1ccc(Cl)cc1)c1ccc(Cl)cc1 [Bis (4-chlorophenyl) thiosulfonate, Bis(4-chlorophenyl) thiosulfonate] | 250 µM
[O-][S+](Sc1ccc(F)cc1)c1ccc(F)cc1 (centres unmarked) [Bis (4-fluorophenyl) thiosulfinate, Bis(4-fluorophenyl) thiosulfinate] | 1000 µM

same assay, conditions: reduction of final OD600 by 90%, 24 h at 37° C., MHB-II

SMILES | P. aeruginosa MIC90
CC(C)SS(=O)(=O)C(C)C [Di-isopropyl thiosulfonate] | 2000 µM
O=S(=O)(Sc1ccc(Cl)cc1)c1ccc(Cl)cc1 [Bis (4-chlorophenyl) thiosulfonate, Bis(4-chlorophenyl) thiosulfonate] | 2000 µM
[O-][S+](Sc1ccc(F)cc1)c1ccc(F)cc1 (centres unmarked) [Bis (4-fluorophenyl) thiosulfinate, Bis(4-fluorophenyl) thiosulfinate] | 4000 µM

Continued, values first:

P. aeruginosa MIC90 | SMILES
2000 µM | O=S(=O)(Sc1ccc(F)cc1)c1ccc(F)cc1 [Bis (4-fluorophenyl) thiosulfonate, Bis(4-fluorophenyl) thiosulfonate]
250 µM | CCCSS(=O)(=O)CCC [Di-n-propyl thiosulfonate, reference compound]

test system: Staphylococcus epidermidis ATCC 35984; assay: as above; format: cell-based; conditions: Staphylococcus epidermidis, ATCC35984; reduction of final OD600 by 50%, 24 h at 37° C., MHB-II; read-out: S. epidermidis MIC50
Experimental: as §3, §4, §5

SMILES | MIC50
CCCSSCCC [Di-n-propyl disulfide, reference compound] | > 4000 µM
Fc1ccc(SSc2ccc(F)cc2)cc1 [Bis (4-fluorophenyl) disulfide, Bis(4-fluorophenyl) disulfide] | 60 µM (≈ 15.3 µg/mL)
Clc1ccc(SSc2ccc(Cl)cc2)cc1 [Bis (4-chlorophenyl) disulfide, Bis(4-chlorophenyl) disulfide] | 10 µM (≈ 2.87 µg/mL)

same assay, conditions: Staphylococcus epidermidis, ATCC35984; reduction of final OD600 by 90%, 24 h at 37° C., MHB-II; read-out: S. epidermidis MIC90

SMILES | MIC90
CCCSSCCC [Di-n-propyl disulfide, reference compound] | > 4000 µM
Fc1ccc(SSc2ccc(F)cc2)cc1 [Bis (4-fluorophenyl) disulfide, Bis(4-fluorophenyl) disulfide] | 60 µM (≈ 15.3 µg/mL)
Clc1ccc(SSc2ccc(Cl)cc2)cc1 [Bis (4-chlorophenyl) disulfide, Bis(4-chlorophenyl) disulfide] | 30 µM (≈ 8.62 µg/mL)

same assay, conditions: reduction of final OD600 by 50%, 24 h at 37° C., MHB-II

SMILES | S. epidermidis MIC50
CC(C)SS(=O)(=O)C(C)C [Di-isopropyl thiosulfonate] | 2000 µM
O=S(=O)(Sc1ccc(Cl)cc1)c1ccc(Cl)cc1 [Bis (4-chlorophenyl) thiosulfonate, Bis(4-chlorophenyl) thiosulfonate] | 30 µM
[O-][S+](Sc1ccc(F)cc1)c1ccc(F)cc1 (centres unmarked) [Bis (4-fluorophenyl) thiosulfinate, Bis(4-fluorophenyl) thiosulfinate] | 125 µM and 130 µM

Results, then the compound that gave them:

S. epidermidis MIC50 | SMILES
250 µM | O=S(=O)(Sc1ccc(F)cc1)c1ccc(F)cc1 [Bis (4-fluorophenyl) thiosulfonate, Bis(4-fluorophenyl) thiosulfonate]
250 µM | CCCSS(=O)(=O)CCC [Di-n-propyl thiosulfonate, reference compound]

same assay, conditions: reduction of final OD600 by 90%, 24 h at 37° C., MHB-II

SMILES | S. epidermidis MIC90
CC(C)SS(=O)(=O)C(C)C [Di-isopropyl thiosulfonate] | 2000 µM
O=S(=O)(Sc1ccc(Cl)cc1)c1ccc(Cl)cc1 [Bis (4-chlorophenyl) thiosulfonate, Bis(4-chlorophenyl) thiosulfonate] | 60 µM
[O-][S+](Sc1ccc(F)cc1)c1ccc(F)cc1 (centres unmarked) [Bis (4-fluorophenyl) thiosulfinate, Bis(4-fluorophenyl) thiosulfinate] | 250 µM

The next lines start with the values.

S. epidermidis MIC90 | SMILES
2000 µM | O=S(=O)(Sc1ccc(F)cc1)c1ccc(F)cc1 [Bis (4-fluorophenyl) thiosulfonate, Bis(4-fluorophenyl) thiosulfonate]
250 µM | CCCSS(=O)(=O)CCC [Di-n-propyl thiosulfonate, reference compound]

test system: Pseudomonas aeruginosa ATCC 27853 biofilm; assay: MBEC assay (48 h biofilm, CFU log reduction); format: cell-based; conditions: 20 h treatment, 0.125-1 mM tested
Experimental: as §1, §2

SMILES | P. aeruginosa MBEC mM with log reduction ≥1
O=S(=O)(Sc1ccc(F)cc1)c1ccc(F)cc1 [Bis (4-fluorophenyl) thiosulfonate, Bis(4-fluorophenyl) thiosulfonate] | >1 mM
CCCSS(=O)(=O)CCC [Di-n-propyl thiosulfonate, reference compound] | 1 mM
CCCSSCCC [Di-n-propyl disulfide, reference compound] | >4 mM
Fc1ccc(SSc2ccc(F)cc2)cc1 [Bis (4-fluorophenyl) disulfide, Bis(4-fluorophenyl) disulfide] | >1 mM
CC(C)SS(=O)(=O)C(C)C [Di-isopropyl thiosulfonate] | >1 mM
O=S(=O)(Sc1ccc(Cl)cc1)c1ccc(Cl)cc1 [Bis (4-chlorophenyl) thiosulfonate, Bis(4-chlorophenyl) thiosulfonate] | >1 mM
Clc1ccc(SSc2ccc(Cl)cc2)cc1 [Bis (4-chlorophenyl) disulfide, Bis(4-chlorophenyl) disulfide] | >1 mM
[O-][S+](Sc1ccc(F)cc1)c1ccc(F)cc1 (centres unmarked) [Bis (4-fluorophenyl) thiosulfinate, Bis(4-fluorophenyl) thiosulfinate] | >1 mM
